The NIST ThermoML archive (doi:10.1016/j.fluid.2010.02.020)
“And” between values parts separate entries of the source, which are not always exact repeats. Equal values may be shown once.

Details: for mass density: 101.33 kPa, Liquid, Vibrating tube method; for surface tension liquid-gas: Pendant drop shape

CCCn1cc[n+](C)c1.O=S(=O)([N-]S(=O)(=O)C(F)(F)F)C(F)(F)F
Details	mass density [kg/m3]	surface tension liquid-gas [mN/m]
293.15 K	1480.5	–
303.15 K	1470.8	–
312.9 K	–	32.5
313.15 K	1461.1	–
323.15 K	1451.5	–
333.15 K	1441.9	–
333.6 K	–	31.5
343.15 K	1432.4	–
353.15 K	1422.9	–
353.9 K	–	30.2
363.15 K	1413.5	–
373.15 K	1404	–
373.5 K	–	28.8
374.2 K	–	29.1
383.15 K	1394.5	–
393.15 K	1384.9	–
393.5 K	–	29.4
394.5 K	–	28
403.15 K	1375.3	–
413.15 K	1365.6	–
413.6 K	–	28.2
414.9 K	–	27.1
423.15 K	1355.8	–
433.15 K	1345.9	–
433.3 K	–	27.6
435.2 K	–	26.3
443.15 K	1335.9	–
453.15 K	1325.8	–
453.2 K	–	26.8
455.5 K	–	26.1
463.15 K	1315.6	–
473 K	–	24.4
473.15 K	1305.1	–
475.7 K	–	24.6

CCCCCCCn1cc[n+](C)c1.O=S(=O)([N-]S(=O)(=O)C(F)(F)F)C(F)(F)F
Details	mass density [kg/m3]
293.15 K	1349.5
303.15 K	1340.4
313.15 K	1331.5
323.15 K	1322.6
333.15 K	1313.8
343.15 K	1305
353.15 K	1296.3
363.15 K	1287.6
373.15 K	1278.9
383.15 K	1270.1
393.15 K	1261.4
403.15 K	1252.6
413.15 K	1243.8
423.15 K	1235
433.15 K	1226.1
443.15 K	1217
453.15 K	1208
463.15 K	1198.7
473.15 K	1189.4

CCCCCCCCCCn1cc[n+](C)c1.O=S(=O)([N-]S(=O)(=O)C(F)(F)F)C(F)(F)F
Details	mass density [kg/m3]	surface tension liquid-gas
293.15 K	1284.9	–
303.15 K	1276	–
313.15 K	1267.4	–
313.2 K	–	28.7 mN/m
313.3 K	–	29.1 mN/m
314.1 K	–	27.7 mN/m
323.15 K	1258.8	–
333 K	–	26.7 mN/m
333.15 K	1250.3	–
333.3 K	–	27 mN/m
333.6 K	–	28.1 mN/m
343.15 K	1241.8	–
352.7 K	–	27 mN/m
353.15 K	1233.5	–
353.2 K	–	25.4 mN/m
353.3 K	–	25.3 mN/m
363.15 K	1225.1	–
372.6 K	–	26.3 mN/m
373.15 K	1216.7	–
373.3 K	–	24.3 mN/m
373.4 K	–	24.5 mN/m
383.15 K	1208.4	–
392.4 K	–	24.9 mN/m and 24.6 mN/m
393.15 K	1200	–
393.3 K	–	23.5 mN/m
403.15 K	1191.7	–
412.3 K	–	23.5 mN/m
412.5 K	–	23.6 mN/m
413.15 K	1183.3	–
413.5 K	–	22.4 mN/m
423.15 K	1174.8	–
432.2 K	–	22.9 mN/m
433 K	–	22.2 mN/m
433.15 K	1166.4	–
433.3 K	–	21.5 mN/m
443.15 K	1157.8	–
452.8 K	–	22.2 mN/m
452.9 K	–	21.2 mN/m
453.15 K	1148.9	–
453.2 K	–	20.4 mN/m
463.15 K	1140.2	–
472.7 K	–	21.1 mN/m
472.8 K	–	19.1 mN/m
473.15 K	1131.4	–
473.3 K	–	19.3 mN/m
492.5 K	–	20.1 mN/m
493.1 K	–	18.5 mN/m
513.8 K	–	17.5 mN/m
533.2 K	–	16.9 mN/m

CCCCCCCCC[n+]1ccn(C)c1.O=S(=O)([N-]S(=O)(=O)C(F)(F)F)C(F)(F)F
Details	mass density [kg/m3]
293.15 K	1303.1
303.15 K	1294.2
313.15 K	1285.5
323.15 K	1276.8
333.15 K	1268.3
343.15 K	1259.7
353.15 K	1251.3
363.15 K	1242.8
373.15 K	1234.3
383.15 K	1225.8
393.15 K	1217.4
403.15 K	1208.8
413.15 K	1200.3
423.15 K	1191.8
433.15 K	1183.2
443.15 K	1174.5
453.15 K	1165.7
463.15 K	1156.8
473.15 K	1147.8

CCCCCCCCn1cc[n+](C)c1.O=S(=O)([N-]S(=O)(=O)C(F)(F)F)C(F)(F)F
Details	mass density [kg/m3]	surface tension liquid-gas [mN/m]
293.15 K	1326.5	–
303.15 K	1317.5	–
313 K	–	29.2
313.15 K	1308.6	–
313.2 K	–	28.5
323.15 K	1299.8	–
332.6 K	–	27.4
333.15 K	1291.2	–
333.3 K	–	28.2
343.15 K	1282.5	–
352.8 K	–	26.1
353.15 K	1273.9	–
353.8 K	–	27.3
363.15 K	1265.3	–
372.8 K	–	25.2
373.15 K	1256.7	–
373.6 K	–	26.3
383.15 K	1248.1	–
392.9 K	–	24
393.15 K	1239.5	–
393.6 K	–	25.3
403.15 K	1230.9	–
412.9 K	–	23.1
413.15 K	1222.2	–
413.4 K	–	24.3
423.15 K	1213.5	–
432.8 K	–	22.1
433.15 K	1204.8	–
433.3 K	–	23.2
443.15 K	1195.9	–
452.5 K	–	21.5
453.15 K	1187	–
453.4 K	–	22.1
463.15 K	1178	–
472.4 K	–	19.7
473.15 K	1168.8	–
473.6 K	–	20.7
493 K	–	20.1
512.6 K	–	19.2

CCCCCCCCCCCCn1cc[n+](C)c1.O=S(=O)([N-]S(=O)(=O)C(F)(F)F)C(F)(F)F
Details	mass density [kg/m3]	surface tension liquid-gas [mN/m]
293.15 K	1249.6	–
303.15 K	1240.9	–
313.15 K	1232.4	–
323.15 K	1224	–
333.15 K	1215.6	–
333.3 K	–	26.4
343.15 K	1207.4	–
353.15 K	1199.2	–
353.6 K	–	25.4
363.15 K	1190.9	–
373.15 K	1182.8	–
373.7 K	–	24.5
383.15 K	1174.7	–
393.15 K	1166.2	–
393.6 K	–	23.6
403.15 K	1158.4	–
413.15 K	1150.2	–
413.7 K	–	22.5
423.15 K	1142	–
433.15 K	1133.7	–
433.6 K	–	21.4
453.8 K	–	20.4
473.7 K	–	19.5
493.3 K	–	18.8
512.9 K	–	17.8
532.6 K	–	16.9
